Values quoted from earlier work, collected in patent US20130345257A1, “COMPOSITION FOR LUPUS NEPHRITIS AND METHODS OF MAKING AND USING THE SAME” (The Regents of the University of California, priority 2012, published 2013).

Tests used:
murine SLE model = conditions: mouse, in vivo; cited from earlier work
human lupus = conditions: phase 1b trial; cited from earlier work
[1] = pulled out of a clinical trial; cited from earlier work

Row | Structure (SMILES) | Efficacy in murine SLE model (murine SLE model) | Adverse events profile (human lupus) | Toxicity in clinical trial [1]
1 | CCc1cccc2c1c(O)c(C(=O)N(CC)c1ccccc1)c(=O)n2C [paquinimod] | effective | favorable adverse events profile | 
2 | CN(C(=O)c1c(O)c2ccccc2n(C)c1=O)c1ccccc1 [roquinimex] |  |  | serious cardiovascular toxicities
